The IC50 is the concentration that gives 50% inhibition.

Each structure is given as a SMILES string.

Experiment [1] in a line: DPPH radical scavenging assay. Particulars: n in brackets. How it is done:
The direct antioxidant effects of compounds 3 were investigated by studying their radical-scavenging effect on the 2,2-diphenyl-1-picrylhydrazyl free radical (DPPH^•). Thus, a 100 μL volume of a methanol solution of each compound was added to 200 μL of 100 μM methanolic DPPH^•, and the solution was kept in the dark at 37 °C for 30 min in a 96-well microliter plate. After this incubation, the absorption at 490 nm of each solution was measured with a microplate reader in order to quantitate its decrease. A blank reading was also taken to calculate the amount of remaining DPPH^•. The radical-scavenging activity exerted by compounds 3 was determined by comparison with a 10 μL of MeOH-treated blank group. Ascorbic acid, a well-known antioxidant acting as a radical scavenger, was used as reference. All samples were analyzed in triplicate. Percent inhibition of the DPPH^• radical was calculated using the equation shown below, where AbsCtrl is the absorbance of the blank group and Abss is the absorbance of the samples containing compounds 3. For each compound showing a percentage of inhibition above 60%, the IC50 value was determined using a dose–response curve obtained from measurements corresponding to at least six concentrations. %Scavenger=AbsCtrl−AbsS/AbsCtrl×100
The radical scavenging activity of all compounds was first studied by the DPPH assay, which measures the ability of antioxidant compounds to donate a hydrogen atom to the violet 2,2-diphenyl-1-picrylhydrazyl radical and transform it into a nonradical species. Thus, it is generally considered to belong to the hydrogen atom transfer (HAT) category of methods for measurement of antioxidant activity.
(In general: DPPH is a stable violet radical that fades when it is reduced.)

The nature of experiment [2]: Ferric reducing antioxidant power (FRAP) assay. Particulars: for FRAP nmol Fe2+ at 30 µM: 30 µM compound, n in brackets; for FRAP TEAC: 30 µM, relative to trolox. More on the design: key to FRAP TEAC: trolox equivalents (TEAC), relative to trolox. How it is done:
A ferric reducing antioxidant power (FRAP) kit assay purchased from Sigma-Aldrich (Madrid, Spain) was employed for the experiments. The antioxidant solutions, FRAP assay buffer solution, FeCl3 solution, and FRAP probe solution were kept in ice during the preparation of the plate. A calibration standard curve was prepared by using the 2 mM ferrous standard solution provided in the FRAP kit assay. Appropriate aliquots of this solution were taken and diluted up to a 200 μL final volume with FRAP buffer. The final ferrous concentrations measured in the well were: 0, 20, 40, 60, 80, and 100 μM. Each concentration value was prepared and measured by triplicate. Stock solutions of compounds 3, as well as reference compounds trolox and ferulic acid, were freshly prepared in 95% ethanol at […]. Aliquots of 10 μL of compounds 3 and the reference compounds were mixed with 19 μL FeCl3 solution and 19 μL FRAP probe solution, and then completed to a final volume of 200 μL with FRAP assay buffer solution. The final concentration of antioxidants and references was 30 μM. Compounds 3, reference compounds, as well as the corresponding blank solutions (one for each compound to be assayed, avoiding the chromogenic FRAP probe), and positive control were thoroughly mixed in vortex for 1–2 min with the reaction chromogenic media, and then were incubated under darkness at 37 °C in the dry bath, and using the device for support well-plates. Each compound to be assayed and the reference antioxidant compounds were prepared and measured by triplicate. The absorbance values were measured at 594 nm after 5 min of reaction and, to assure complete reaction, the absorbance values after 60 min of incubation at 37 °C in the dry bath were also measured. The absorbance values of the sample antioxidant compounds were corrected by subtracting the corresponding absorbance values of the blanks, and then they were introduced in the calibration curve and the ferrous equivalents were determined. The reference antioxidants employed for this assay were trolox and ferulic acid, which were obtained from Sigma-Aldrich (Madrid, Spain). Ultrapure water was obtained from a Milli-Q Direct 8 system (Millipore, Molsheim, France).
In order to achieve a broader insight into the antioxidant profile of our compounds, we also examined them using a single electron transfer (SET)-based method, namely the ferric reducing antioxidant power (FRAP) assay, which measures the ability of an antioxidant to reduce the ferric ion in the TPTZ (2,4,6-tri(2-pyridyl)-1,3,5-triazine)-Fe(III) complex.

Experiment [3] concerns SH-SY5Y cells. As to the kind of experiment: Neuroprotection against okadaic acid in SH-SY5Y cells (MTT). The format is cell-based. Particulars: Homo sapiens, SH-SY5Y, 18 h; 1 µM compound; okadaic acid 20 nM; read-out: % Neuroprotection ± SEM at 1 µM (okadaic acid). The protocol:
Neuroprotection studies against tau hyperphosphorylation exerted by okadaic acid (OA) were evaluated using the SH-SY5Y cell line as follows. […] After 18 h, cell viability was addressed by the MTT reduction method. MTT (5 mg/mL, 10 μL/well) was added and incubated for 2 h. Then, the medium was removed and the purple formazan crystals formed by viable cells were dissolved using 100 μL of DMSO. A FluoStar Optima spectrophotometer (BMG Labtech, Ortenberg, Baden-Württemberg, Germany) was used to measure the absorbance at 570 nm.
Okadaic acid is a potent inhibitor of protein phosphatase 2A (PP2A), thereby inducing tau hyperphosphorylation. For this reason, it can be employed as a model of neurodegenerative-disease-connected tau hyperphosphorylation, a well-known feature of Alzheimer’s disease, but present also in other NDDs, collectively known as tauopathies and characterized by the pathological aggregation of hyperphosphorylated tau in neurofibrillary tangles. […] Tau hyperphosphorylation is connected to oxidative stress, which activates p38 and deactivates calcineurin, a phosphatase involved in tau dephosphorylation by increasing RCAN1, its natural repressor [34, 35]. Indeed, hyperphosphorylation and oxidative stress have been proposed to generate a vicious circle that is critical to the advance of neurodegenerative tauopathies.

Experiment [4] has as its system SH-SY5Y cells. As to the kind of experiment: Neuroprotection against rotenone/oligomycin A in SH-SY5Y cells (MTT). It counts as cell-based. The conditions noted are these: Homo sapiens, 24 h, 1 µM compound, rotenone 30 µM + oligomycin A 10 µM, read-out: % Neuroprotection ± SEM at 1 µM (rotenone/oligomycin A). How it is done:
To evaluate the compounds for their neuroprotective effect in an oxidative stress model, we selected the rotenone (30 μM) and oligomycin A (10 μM) (R/O) cocktail, which disturbs the flow of electrons in the mitochondrial respiratory chain. Similarly, SH-SY5Y cells were preincubated with compounds 3 at 1 μM for 24 h. Then, they were co-incubated in the presence of R/O for a further 24 h, evaluating cell viability by the MTT reduction method.
Thus, the R/O combination constitutes a good model of oxidative stress and neurodegeneration with a mitochondrial origin, and has been broadly employed to evaluate potential hit compounds for the treatment of neurodegenerative diseases. Furthermore, treatment of laboratory animals with rotenone is known to induce many features associated to Parkinson’s disease, such as selective nigrostriatal dopaminergic degeneration and the appearance of α-synuclein cytoplasmic inclusions, which are associated with oxidative damage.

`O=C1O[C@H]([C@@H](O)CO)C(O)=C1O` [Ascorbic acid, reference compound]: in experiment [1], the midpoint of inhibition, the IC50, lay at 16.2 ± 0.7 µM.
With `COc1cc(/C=C/C(=O)O)ccc1O` [Ferulic acid, reference compound], in experiment [2], the “FRAP nmol Fe2+ at 30 µM” value is 1.98 ± 0.04 (3) nmol Fe^2+ and the “FRAP TEAC” value is 0.87.
On to `COc1ccc2[nH]cc(CCNC(C)=O)c2c1` [Melatonin, reference compound], for which, in the experiment with SH-SY5Y cells [3], the % neuroprotection against okadaic acid at 1 µM was 67.7 ± 13.9%. Moreover, the % neuroprotection against rotenone/oligomycin A toxicity at 1 µM in the experiment on SH-SY5Y cells [4] came out at 61.4 ± 8.75%.
`Cc1c(C)c2c(c(C)c1O)CCC(C)(C(=O)O)O2` (centres unmarked) [Trolox, reference compound]: in experiment [2], the “FRAP nmol Fe2+ at 30 µM” value is listed as 2.28 ± 0.15 (9) nmol Fe^2+ and the “FRAP TEAC” value was determined as 1.00. In addition, half-maximal inhibition in experiment [1] (IC50) required 11.4 ± 1 µM.

These data come from paper PMC8230565, “Bisavenathramide Analogues as Nrf2 Inductors and Neuroprotectors in In Vitro Models of Oxidative Stress and Hyperphosphorylation” (Antioxidants, 2021).
